These results are taken from US8426437B2, “Pyrroloquinoline derivatives and their use as protein kinases inhibitors” (Pierre Fabre Medicament, priority 2005, dated 2013).

T1 sequence (P07949 29-1114): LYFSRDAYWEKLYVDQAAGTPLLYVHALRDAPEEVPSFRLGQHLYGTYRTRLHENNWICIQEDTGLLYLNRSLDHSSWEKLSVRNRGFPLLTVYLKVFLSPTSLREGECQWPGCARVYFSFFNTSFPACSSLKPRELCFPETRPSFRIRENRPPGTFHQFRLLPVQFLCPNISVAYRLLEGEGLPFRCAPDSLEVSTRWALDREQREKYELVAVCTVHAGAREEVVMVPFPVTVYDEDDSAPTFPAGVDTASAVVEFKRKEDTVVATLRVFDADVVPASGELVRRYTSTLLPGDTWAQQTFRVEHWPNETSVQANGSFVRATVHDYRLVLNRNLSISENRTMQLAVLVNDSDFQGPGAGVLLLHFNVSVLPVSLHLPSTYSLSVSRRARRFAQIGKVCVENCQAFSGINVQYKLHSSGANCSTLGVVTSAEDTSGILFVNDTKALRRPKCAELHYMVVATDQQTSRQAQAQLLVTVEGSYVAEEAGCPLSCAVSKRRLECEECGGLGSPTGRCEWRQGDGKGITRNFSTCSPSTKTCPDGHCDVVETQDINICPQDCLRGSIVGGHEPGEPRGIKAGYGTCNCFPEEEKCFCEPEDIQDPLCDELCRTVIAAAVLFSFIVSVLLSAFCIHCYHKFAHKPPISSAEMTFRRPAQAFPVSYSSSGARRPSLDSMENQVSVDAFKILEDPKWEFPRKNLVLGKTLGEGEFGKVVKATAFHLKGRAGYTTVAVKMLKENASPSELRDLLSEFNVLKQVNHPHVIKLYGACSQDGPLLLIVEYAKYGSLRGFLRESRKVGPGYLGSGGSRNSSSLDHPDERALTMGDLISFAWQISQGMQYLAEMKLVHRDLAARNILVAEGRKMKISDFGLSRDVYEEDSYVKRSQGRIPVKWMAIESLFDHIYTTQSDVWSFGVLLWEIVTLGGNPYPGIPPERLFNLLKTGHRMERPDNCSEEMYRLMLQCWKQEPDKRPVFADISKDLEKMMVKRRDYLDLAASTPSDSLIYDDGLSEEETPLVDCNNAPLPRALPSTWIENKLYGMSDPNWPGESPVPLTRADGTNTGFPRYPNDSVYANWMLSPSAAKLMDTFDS

This test addresses T1, RET (Homo sapiens, UniProt P07949).
T1 construct: purchased Upstate 14-570MG
Briefly: Inhibition of RET kinase activity, recombinant RET method (Kinase-Glo). The conditions noted are these: RET 2 μg/ml, poly-EY4 substrate, 20 μM ATP, two hours at 30° C. Format: biochemical. On the procedure:
The inhibition of the kinase activity of the compounds of the invention is assessed by measuring their IC50 on RET.
where: • Y is the value of the luminescence • X is the logarithm of the concentration of the compound • Bottom is the minimum Y value • Top is the maximum Y value • LogIC50 is the value of X when Y is 50% from Top—Bottom.
The quantity of RET required is 2 μg/ml.
The following buffer is used for dilution of RET: 20 mM MOPS/NaOH pH7.0, 1 mM EDTA, 5% glycerol, 0.01% Brij35 (Sigma B4184), 0.1% 2-mercaptoethanol, 1 mg/ml BSA (Sigma A3059-10G).
The dilution of the compounds of the invention is distributed so as to obtain a scale of final concentrations between 10 nM and 30 μM.
After incubation of the reaction mixture for two hours at 30° C., the level of ATP that remains is assayed using the Kinase-Glo Luminescent Kinase Assay (Promega #V6712) according to the conditions recommended by the supplier. The luminescence induced is read in a plate reader (Envision-Perkin Elmer).
`CCOC(=O)c1c[nH]c2c(=O)[nH]c3ccc(N(C)C)cc3c12` [Compound 62, 8-Dimethylamino-4-oxo-4,5-dihydro-3H-pyrrolo[2,3-c]quinoline-1-ethyl carboxylate]: the IC50 lay in the range of 1 to 10 µM.

Turning to `CCOC(=O)/C=C/c1ccc2[nH]c(=O)c3[nH]cc(C(=O)OCC)c3c2c1` [Compound 65, 8-(2-Ethoxycarbonyl-vinyl)-4-oxo-4,5-dihydro-3H-pyrrolo[2,3-c]quinoline-1-ethyl carboxylate], the IC50 was 1 to 10 µM.

In the case of `CCOC(=O)c1c[nH]c2c(=O)[nH]c3c([N+](=O)[O-])cccc3c12` [Compound 67, 6-Nitro-4-oxo-4,5-dihydro-3H-pyrrolo[2,3-c]quinoline-1-ethyl carboxylate], the IC50 was 10 to 100 µM.

With `CCOC(=O)c1c[nH]c2c(=O)[nH]c3ccc(/C=C/C(=O)NCc4ccccc4)cc3c12` [Compound 68, 8-(2-Benzylcarbamoyl-vinyl)-4-oxo-4,5-dihydro-3H-pyrrolo[2,3-c]quinoline-1-ethyl carboxylate], the 50% inhibitory concentration (IC50) was in the range of 1 to 10 µM.

For the molecule `CCOC(=O)c1c[nH]c2c(=O)[nH]c3ccc(/C=C/C(=O)NCCC(=O)OC)cc3c12` [Compound 69, 8-[2-(2-Methoxycarbonyl-ethylcarbamoyl)-vinyl]-4-oxo-4,5-dihydro-3H-pyrrolo[2,3-c]quinoline-1-ethyl carboxylate], the IC50 was in the range of 1 to 10 µM.

In the case of `CCOC(=O)c1c[nH]c2c(=O)[nH]c3cc(OC)c(OC)cc3c12` [Compound 72, 7,8-Dimethoxy-4-oxo-4,5-dihydro-3H-pyrrolo[2,3-c]quinoline-1-ethyl carboxylate], the half-inhibitory concentration (IC50) lay within 1 to 10 µM.

On to `COC(=O)c1c[nH]c2c(=O)[nH]c3ccccc3c12` [Compound 73, 4-Oxo-4,5-dihydro-3H-pyrrolo[2,3-c]quinoline-1-methyl carboxylate], for which the half-inhibitory concentration (IC50) was in the range of 1 to 10 µM.

On to `O=C(OCc1ccccc1)c1c[nH]c2c(=O)[nH]c3ccccc3c12` [Compound 74, 4-Oxo-4,5-dihydro-3H-pyrrolo[2,3-c]quinoline-1-carboxylate benzyl], for which the half-maximal inhibitory concentration (IC50) lay within 1 to 10 µM.

For the molecule `O=C(O)c1c[nH]c2c(=O)[nH]c3ccccc3c12` [Compound 75, 4-oxo-4,5-dihydro-3H-pyrrolo[2,3-c]quinoline-1-carboxylic acid], the IC50 lay within 10 to 100 µM.

With `O=C(c1ccccc1)c1c[nH]c2c(=O)[nH]c3ccccc3c12` [Compound 76, 1-Benzoyl-3,5-dihydro-pyrrolo[2,3-c]quinolin-4-one], the IC50 lay in the range of 1 to 10 µM.

On to `CC(=O)c1c[nH]c2c(=O)[nH]c3ccccc3c12` [Compound 77, 1-Acetyl-3,5-dihydro-pyrrolo[2,3-c]quinolin-4-one], for which the half-maximal inhibitory concentration (IC50) fell in the range of 10 to 100 µM.

On to `CC(C)OC(=O)c1c[nH]c2c(=O)[nH]c3ccccc3c12` [Compound 78, 4-Oxo-4,5-dihydro-3H-pyrrolo[2,3-c]quinoline-1-carboxylate isopropyl], for which the IC50 is 1 to 10 µM.

In the case of `CN(C)CCCNC(=O)c1c[nH]c2c(=O)[nH]c3ccccc3c12` [Compound 80, N-(3-Dimethylamino-propyl)-4-oxo-4,5-dihydro-3H-pyrrolo[2,3-c]quinoline-1-carboxamide], the IC50 lay in the range of 10 to 100 µM.

As to `COC(=O)CCNC(=O)c1c[nH]c2c(=O)[nH]c3ccccc3c12` [Compound 81, 3-[(4-Oxo-4,5-dihydro-3H-pyrrolo[2,3-c]quinoline-1-carbonyl)-amino]-methyl propanoate], the IC50 was 10 to 100 µM.

For `O=C(NCC1CCCCC1)c1c[nH]c2c(=O)[nH]c3ccccc3c12` [Compound 82, N-(Cyclohexylmethyl)-4-oxo-4,5-dihydro-3H-pyrrolo[2,3-c]quinoline-1-carboxamide], the concentration for half-maximal inhibition (IC50) fell in the range of 10 to 100 µM.

Regarding `O=C(NCc1ccccc1)c1c[nH]c2c(=O)[nH]c3ccccc3c12` [Compound 83, N-(Benzyl)-4-oxo-4,5-dihydro-3H-pyrrolo[2,3-c]quinoline-1-carboxamide], the half-maximal inhibitory concentration (IC50) lay within 10 to 100 µM.

Turning to `O=C(NCCc1c[nH]c2ccccc12)c1c[nH]c2c(=O)[nH]c3ccccc3c12` [Compound 84, N-[2-(1H-Indol-3-yl)-ethyl]-4-oxo-4,5-dihydro-3H-pyrrolo[2,3-c]quinoline-1-carboxamide], the half-inhibitory concentration (IC50) lay within 10 to 100 µM.

`O=C(NCCCO)c1c[nH]c2c(=O)[nH]c3ccccc3c12` [Compound 85, N-(3-Hydroxy-propyl)-4-oxo-4,5-dihydro-3H-pyrrolo[2,3-c]quinoline-1-carboxamide]: the IC50 lay within 10 to 100 µM.

Turning to `O=C(NCc1ccncc1)c1c[nH]c2c(=O)[nH]c3ccccc3c12` [Compound 86, N-(Pyridin-4-ylmethyl)-4-oxo-4,5-dihydro-3H-pyrrolo[2,3-c]quinoline-1-carboxamide], the IC50 lay within 10 to 100 µM.

`O=C(Nc1ccccc1)c1c[nH]c2c(=O)[nH]c3ccccc3c12` [Compound 87, N-(Phenyl)-4-oxo-4,5-dihydro-3H-pyrrolo[2,3-c]quinoline-1-carboxamide]: the half-maximal inhibitory concentration (IC50) lay within 10 to 100 µM.

As for `CNC(=O)c1c[nH]c2c(=O)[nH]c3ccccc3c12` [Compound 88, N-(Methyl)-4-oxo-4,5-dihydro-3H-pyrrolo[2,3-c]quinoline-1-carboxamide], the IC50 was 10 to 100 µM.

Take `CN(C)C(=O)c1c[nH]c2c(=O)[nH]c3ccccc3c12` [Compound 89, N,N-(Dimethyl)-4-oxo-4,5-dihydro-3H-pyrrolo[2,3-c]quinoline-1-carboxamide]: the half-maximal inhibitory concentration (IC50) is 10 to 100 µM.

As for `NC(=O)c1c[nH]c2c(=O)[nH]c3ccccc3c12` [Compound 90, 4-Oxo-4,5-dihydro-3H-pyrrolo[2,3-c]quinoline-1-carboxamide], the IC50 fell in the range of 10 to 100 µM.

Take `COC(=O)c1c[nH]c2c(=O)[nH]c3ccc(S(=O)(=O)NC4CCCC4)cc3c12` [Compound 92, 8-Cyclopentylsulfamoyl-4-oxo-4,5-dihydro-3H-pyrrolo[2,3-c]quinoline-1-methyl carboxylate]: the IC50 is 1 to 10 µM.

`CCOC(=O)c1c[nH]c2c(=O)[nH]c3ccc(S(N)(=O)=O)cc3c12` [Compound 96, 4-Oxo-8-sulfamoyl-4,5-dihydro-3H-pyrrolo[2,3-c]quinoline-1-ethyl carboxylate]: the 50% inhibitory concentration (IC50) is 0.1 to 1 µM.

Turning to `CCOC(=O)c1c[nH]c2c(=O)[nH]c3ccc(S(=O)(=O)Nc4ccc(O)cc4)cc3c12` [Compound 98, 8-(4-Hydroxy-phenylsulfamoyl)-4-oxo-4,5-dihydro-3H-pyrrolo[2,3-c]quinoline-1-ethyl carboxylate], the IC50 is below 0.1 µM.

Consider `CCOC(=O)c1c[nH]c2c(=O)[nH]c3ccc(F)cc3c12` [Compound 99, 8-Fluoro-4-oxo-4,5-dihydro-3H-pyrrolo[2,3-c]quinoline-1-ethyl carboxylate], for which the IC50 is 10 to 100 µM.

Consider `CCN(CC)CCOC(=O)c1c[nH]c2c(=O)[nH]c3ccc(F)cc3c12` [Compound 100, 8-Fluoro-4-oxo-4,5-dihydro-3H-pyrrolo[2,3-c]quinoline-1-carboxylate of 2-diethylaminoethyl], for which the 50% inhibitory concentration (IC50) is 10 to 100 µM.

With `CCOC(=O)c1c[nH]c2c(=O)[nH]c3ccc(C(C)=O)cc3c12` [Compound 101, 8-Acetyl-4-oxo-4,5-dihydro-3H-pyrrolo[2,3-c]quinoline-1-ethyl carboxylate], the IC50 was in the range of 1 to 10 µM.

Regarding `CCOC(=O)c1c[nH]c2c(=O)[nH]c3ccc(C(=O)c4ccccc4)cc3c12` [Compound 102, 8-Benzoyl-4-oxo-4,5-dihydro-3H-pyrrolo[2,3-c]quinoline-1-ethyl carboxylate], the IC50 is 1 to 10 µM.
